According to patent publication US9040545B2, “Heterocyclyl pyrazolopyrimidine analogues as selective JAK inhibitors” (Cellzome Limited, priority 2010, dated 2015):

What follows are compounds tested against T1, JAK3 (Homo sapiens, UniProt P52333) (assay: Kinobeads assay, JAK3). Conditions: mixed Molt4/Ramos lysate, read-out: Inhibition values (IC50) JAK3.
T1 construct: endogenous in cells; host or cells: mixed Molt4/Ramos lysate (1:2)
T1 sequence (P52333 1-1124): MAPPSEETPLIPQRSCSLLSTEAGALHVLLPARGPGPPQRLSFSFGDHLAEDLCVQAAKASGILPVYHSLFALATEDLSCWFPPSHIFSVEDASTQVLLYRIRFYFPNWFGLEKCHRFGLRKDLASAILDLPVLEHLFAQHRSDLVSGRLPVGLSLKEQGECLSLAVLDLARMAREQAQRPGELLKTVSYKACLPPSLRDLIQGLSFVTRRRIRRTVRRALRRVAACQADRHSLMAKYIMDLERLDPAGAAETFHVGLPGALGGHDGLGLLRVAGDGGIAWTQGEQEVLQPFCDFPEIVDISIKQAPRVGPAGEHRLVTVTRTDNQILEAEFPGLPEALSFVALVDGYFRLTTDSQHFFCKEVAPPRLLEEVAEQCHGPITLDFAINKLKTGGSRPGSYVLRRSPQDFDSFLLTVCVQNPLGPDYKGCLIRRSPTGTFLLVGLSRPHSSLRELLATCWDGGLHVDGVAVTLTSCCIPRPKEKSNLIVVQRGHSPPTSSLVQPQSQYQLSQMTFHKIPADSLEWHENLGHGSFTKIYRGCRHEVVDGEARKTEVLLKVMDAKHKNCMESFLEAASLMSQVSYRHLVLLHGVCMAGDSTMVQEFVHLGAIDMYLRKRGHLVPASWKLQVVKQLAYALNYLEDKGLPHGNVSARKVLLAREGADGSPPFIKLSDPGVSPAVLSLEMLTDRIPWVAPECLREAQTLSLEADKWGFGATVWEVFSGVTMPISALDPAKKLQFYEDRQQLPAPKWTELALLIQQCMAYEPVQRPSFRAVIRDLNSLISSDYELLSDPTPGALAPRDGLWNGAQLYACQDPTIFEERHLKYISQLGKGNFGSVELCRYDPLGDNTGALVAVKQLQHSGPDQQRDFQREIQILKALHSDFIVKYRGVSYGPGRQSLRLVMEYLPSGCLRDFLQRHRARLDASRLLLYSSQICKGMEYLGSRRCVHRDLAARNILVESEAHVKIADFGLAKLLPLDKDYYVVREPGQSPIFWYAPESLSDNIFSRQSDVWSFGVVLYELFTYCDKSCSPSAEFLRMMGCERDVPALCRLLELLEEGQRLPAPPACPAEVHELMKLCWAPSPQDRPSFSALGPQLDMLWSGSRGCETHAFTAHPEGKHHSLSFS
Assay type: binding
Procedure, shortened: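 Competition binding in mixed Molt4/Ramos cell lysate (1:2, 10 mg/mL protein) with Kinobeads carrying immobilized aminopyrido-pyrimidine ligand, 3 h in cold room; 9-step 1:3 compound dilution series from 5 mM DMSO stock. Bead-bound JAK2/JAK3 eluted and quantified by antibody dot blot with infrared detection; IC50 from dose-response curves.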

IC50, < 100 nM:
CN(C)CCCn1cc(Nc2ncc3cnn(Cc4c(F)c(F)cc(N5CCOCC5)c4F)c3n2)cn1 [Example 42, N-(1-(3-(Dimethylamino)propyl)-1H-pyrazol-4-yl)-1-(2,3,6-trifluoro-5-morpholinobenzyl)-1H-pyrazolo[3,4-d]pyrimidin-6-amine]
CN(C)CCCn1cc(Nc2ncc3cnn(Cc4cccc(N5CCOCC5)c4F)c3n2)cn1 [Example 43, N-(1-(3-(Dimethylamino)propyl)-1H-pyrazol-4-yl)-1-(2-fluoro-3-morpholinobenzyl)-1H-pyrazolo[3,4-d]pyrimidin-6-amine]
OCCn1cc(Nc2ncc3cnn(Cc4cc(N5CCOCC5)ccc4F)c3n2)cn1 [Example 44, 2-(4-((1-(2-Fluoro-5-morpholinobenzyl)-1H-pyrazolo[3,4-d]pyrimidin-6-yl)amino)-1H-pyrazol-1-yl)ethanol]
OCCn1cc(Nc2ncc3cnn(Cc4c(F)c(F)cc(N5CCOCC5)c4F)c3n2)cn1 [Example 45, 2-(4-((1-(2,3,6-Trifluoro-5-morpholinobenzyl)-1H-pyrazolo[3,4-d]pyrimidin-6-yl)amino)-1H-pyrazol-1-yl)ethanol]
O=C1COCCN1c1cccc(Cn2ncc3cnc(Nc4cnn(CCO)c4)nc32)c1F [Example 46, 4-(2-Fluoro-3-((6-((1-(2-hydroxyethyl)-1H-pyrazol-4-yl)amino)-1H-pyrazolo[3,4-d]pyrimidin-1-yl)methyl)phenyl)morpholin-3-one]
OCCn1cc(Nc2ncc3cnn(Cc4cccc(N5CCNCC5)c4)c3n2)cn1 [Example 47, 2-(4-((1-(3-(piperazin-1-yl)benzyl)-1H-pyrazolo[3,4-d]pyrimidin-6-yl)amino)-1H-pyrazol-1-yl)ethanol]
c1cc(Cn2ncc3cnc(Nc4cnn(CC5CCCNC5)c4)nc32)cc(N2CCOCC2)c1 (stereo not shown) [Example 48, 1-(3-Morpholinobenzyl)-N-(1-(piperidin-3-ylmethyl)-1H-pyrazol-4-yl)-1H-pyrazolo[3,4-d]pyrimidin-6-amine]
Cn1cc(Nc2ncc3cnn(Cc4cc(F)cc(N5CCOCC5)c4)c3n2)cn1 [Example 49, 1-(3-Fluoro-5-morpholinobenzyl)-N-(1-methyl-1H-pyrazol-4-yl)-1H-pyrazolo[3,4-d]pyrimidin-6-amine]
CN(C)CCCn1cc(Nc2ncc3cnn(Cc4cccc(N5CCOCC5=O)c4F)c3n2)cn1 [Example 50, 4-(3-((6-((1-(3-(Dimethylamino)propyl)-1H-pyrazol-4-yl)amino)-1H-pyrazolo[3,4-d]pyrimidin-1-yl)methyl)-2-fluorophenyl)morpholin-3-one]
OCCn1cc(Nc2ncc3cnn(Cc4cc(F)cc(N5CCOCC5)c4)c3n2)cn1 [Example 51, 2-(4-((1-(3-Fluoro-5-morpholinobenzyl)-1H-pyrazolo[3,4-d]pyrimidin-6-yl)amino)-1H-pyrazol-1-yl)ethanol]
Cn1cc(Nc2ncc3cnn(Cc4cc(F)cc(N5CCOCC5=O)c4)c3n2)cn1 [Example 52, 4-(3-Fluoro-5-((6-((1-methyl-1H-pyrazol-4-yl)amino)-1H-pyrazolo[3,4-d]pyrimidin-1-yl)methyl)phenyl)morpholin-3-one]
Cn1cc(Nc2ncc3cnn(Cc4cc(N5CCOCC5=O)cc(F)c4F)c3n2)cn1 [Example 53, 4-(3,4-Difluoro-5-((6-((1-methyl-1H-pyrazol-4-yl)amino)-1H-pyrazolo[3,4-d]pyrimidin-1-yl)methyl)phenyl)morpholin-3-one]
Cn1cc(Nc2ncc3cnn(Cc4cccc(N5CCNCC5=O)c4F)c3n2)cn1 [Example 54, 1-(2-Fluoro-3-((6-((1-methyl-1H-pyrazol-4-yl)amino)-1H-pyrazolo[3,4-d]pyrimidin-1-yl)methyl)phenyl)piperazin-2-one]
